From paper PMC7396997, “Discovery of 4-Anilinoquinolinylchalcone Derivatives as Potential NRF2 Activators” (Molecules, 2020)
Where “and” joins values, the source holds several entries; their conditions need not be identical. Equal entries are not always repeated.

Tests used:
[1] = system: NRF2; assay: ARE-driven luciferase reporter assay (NRF2 activity) in HaCaT/ARE stable cells; type: cell-based, human; conditions: 10 μM, 24 h (b12; method b59 says 18 h), luciferase normalised to cell viability, DMSO control = 100%; for activity at 10 µM: Homo sapiens, HaCaT, read-out: % of Relative NRF2 Activity in HaCaT Cell
Description: In this study, we used a stable ARE-driven reporter system to screen the potential NRF2 activators.

[2] = system: HaCaT/ARE cells; assay: Cell viability (resazurin) in the reporter screen; conditions: 10 μM; in % (unit assumed)
Description: Immortalized human keratinocytes HaCaT were cultured in the Dulbecco’s modified Eagle’s medium (DMEM; Gibco BRL, Grand Island, NY, USA) with 10% heat-inactivated fetal bovine serum (HyClone, Logan, UT, USA), penicillin (100 U/mL), and streptomycin (100 μg/mL) in a humidified incubator with 5% CO2. HaCaT/ARE stable cells were grown in DMEM supplemented with 100 μg/mL of hygromycin.
HaCaT/ARE stable cells were seeded (1 × 10^4 cells/well) in a 96 well plate, then were treated with indicated concentrations of compounds for 18 h. At the assay time point, resazurin (Cayman Chemical, Ann Arbor, MI, USA) was added to a final concentration of 0.1 mg/mL and further incubated for 4 h at 37 °C. Fluorescence of the reduced resazurin (ex/em: 530 nm/590 nm) was measured from the culture supernatant by using a Synergy HT Multi-Mode Reader (BioTek, Winooski, VT, USA) to determine cell viability. The cells were then harvested for luciferase activity measurements according to the manufacturer’s protocol (Promega Corporation, Madison, WI, USA). Relative luciferase activity was calculated by normalizing luciferase activity to cell viability, and DMSO solvent control was used as 100% activity.

| Molecule | % of Relative NRF2 Activity in HaCaT Cell [1] | Cell Viability [2] | activity at 10 µM [1] [%] |
| --- | --- | --- | --- |
| (E)-1-(4-Methoxyphenyl)-3-[4-(phenylamino)quinolin-2-yl]prop-2-en-1-one [14a] | 7% and 7.1 ± 1.3% | – | – |
| (E)-4-({2-[3-(4-Fluorophenyl)-3-oxoprop-1-en-1-yl]quinolin-4-yl}amino)-benzoic acid [13c] | 147% and 147.3 ± 51.7% | 74.5 ± 1.1 | – |
| CCN(CC)CCNC(=O)c1ccc(Nc2cc(/C=C/C(=O)c3ccc(OC)cc3)nc3ccccc23)cc1 [13f] | – | 88.7 ± 1.9 | – |
| O=C(/C=C/c1cc(Nc2ccccc2)c2ccccc2n1)c1ccccc1 [12a, (E)-1-phenyl-3-[4-(phenylamino)quinolin-2-yl]prop-2-en-1-one] | – | 67.65 ± 0.6 | 7 |
| CCN(CC)CCOC(=O)c1ccc(Nc2cc(/C=C/C(=O)c3ccc(F)cc3)nc3ccccc23)cc1 [13h, 2-(Diethylamino)ethyl (E)-4-{{2-[3-(4-fluorophenyl)-3-oxoprop-1-en-1-yl]-quinolin-4-yl}amino}benzoate] | – | 82.7 ± 1.7 | – |
| CCN(CC)CCOC(=O)c1ccc(Nc2cc(/C=C/C(=O)c3ccc(OC)cc3)nc3ccccc23)cc1 [14h, 2-(Diethylamino)ethyl (E)-4-{{2-[3-(4-methoxyphenyl)-3-oxoprop-1-en-1-yl]-quinolin-4-yl}amino}benzoate] | – | 76.8 ± 0.2 | 127 |
| C/C(=N\OCCCN(C)C)c1ccc(Nc2cc(/C=C/C(=O)c3ccccc3)nc3ccccc23)cc1 [12e, (E)-3-{4-{{4-{(E)-1-{[3-(dimethylamino)propoxy]imino}ethyl}phenyl}-amino}quinolin-2-yl}-1-phenylprop-2-en-1-one] | – | 69.5 ± 0.9 | 95 |
| O=C(O)c1ccc(Nc2cc(/C=C/C(=O)c3ccccc3)nc3ccccc23)cc1 [12c, (E)-4-{[2-(3-oxo-3-phenylprop-1-en-1-yl)quinolin-4-yl]amino}benzoic acid] | – | 81.4 ± 0.8 | 75 |
| (E)-4-{{2-[3-(4-Methoxyphenyl)-3-oxoprop-1-en-1-yl]quinolin-4-yl}-amino}benzoic acid [14c] | 212% and 212.6 ± 93.6% | 70.8 ± 1.9 | – |
| (E)-N-[2-(Diethylamino)ethyl]-4-{{2-[3-(4-fluorophenyl)-3-oxoprop-1-en-1-yl]quinolin-4-yl}amino}benzamide [13g] | 5% and 5.1 ± 0.42% | 78.7 ± 0.5 | – |
| (E)-3-{4-{{4-{(E)-1-[(2-Aminoethoxy)imino]ethyl}phenyl}amino}quinolin-2-yl}-1-(4-methoxyphenyl)prop-2-en-1-one [14d] | 229% and 229.4 ± 68.4% | – | – |
| (E)-3-{4-{{4-{(E)-1-[(2-Aminoethoxy)imino]ethyl}phenyl}amino}quinolin-2-yl}-1-(4-fluorophenyl)prop-2-en-1-one [13d] | 1697% and 1697.3 ± 39.8% | – | – |
| CCN(CC)CCOC(=O)c1ccc(Nc2cc(/C=C/C(=O)c3ccccc3)nc3ccccc23)cc1 [12h, 2-(Diethylamino)ethyl (E)-4-{[2-(3-oxo-3-phenylprop-1-en-1-yl)quinolin-4-yl]amino}benzoate] | – | 71.1 ± 1.2 | – |
| C/C(=N\OCCN)c1ccc(Nc2cc(/C=C/C(=O)c3ccccc3)nc3ccccc23)cc1 [12d] | – | 68.4 ± 1.3 | 287 |
| (E)-3-{4-{{4-{(E)-1-{[2-(Dimethylamino)ethoxy]imino}ethyl}phenyl}-amino}quinolin-2-yl}-1-(4-fluorophenyl)prop-2-en-1-one [13e] | 2145% and 2144.7 ± 168.6% | – | – |
| (E)-1-(4-Fluorophenyl)-3-[4-(phenylamino)quinolin-2-yl]prop-2-en-1-one [13a] | 6% and 5.5 ± 0.17% | – | – |
| COc1ccc(/C=C/C(=O)c2c(O)cc(OC)cc2OC)cc1 [Flavokawain A, reference compound] | – | 95.9 ± 1.6 | – |
